Measured values reported in ChEMBL document CHEMBL1201862, “PubChem BioAssay data set” (2004).
Activity calls are given as the source filed them.

Legend:
[1] = system: BJ; test: BJ-TERT fibroblast viability loss – cell-based, RAS-independent, luminescence, dose response (AID 1933); type: functional; details: Homo sapiens
[2] = system: BJ; test: cells; type: functional, cell-based; details: Homo sapiens
[3] = system: BJ; test: BJ-TERT-LT-ST fibroblast viability loss – cell-based, RAS-independent, luminescence, dose response (AID 1935); type: functional; details: Homo sapiens;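 also: BJ fibroblasts immortalized with TERT plus LT and ST oncogenes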
[4] = DRD fibroblast viability loss – cell-based, non-viral oncogenic, luminescence, dose response (AID 1934); type: functional; details: Homo sapiens
[5] = system: HEK293; test: cells; type: functional, cell-based; details: Homo sapiens
[6] = target: Genome polyprotein (dengue virus type 2, UniProt P29990); test: flavivirus cap methylation enzyme inhibition – biochemical, confirmation dose response, primary screen (AID 588689); type: functional
Genome polyprotein, sequence (P29990 2492-3391 limits assumed): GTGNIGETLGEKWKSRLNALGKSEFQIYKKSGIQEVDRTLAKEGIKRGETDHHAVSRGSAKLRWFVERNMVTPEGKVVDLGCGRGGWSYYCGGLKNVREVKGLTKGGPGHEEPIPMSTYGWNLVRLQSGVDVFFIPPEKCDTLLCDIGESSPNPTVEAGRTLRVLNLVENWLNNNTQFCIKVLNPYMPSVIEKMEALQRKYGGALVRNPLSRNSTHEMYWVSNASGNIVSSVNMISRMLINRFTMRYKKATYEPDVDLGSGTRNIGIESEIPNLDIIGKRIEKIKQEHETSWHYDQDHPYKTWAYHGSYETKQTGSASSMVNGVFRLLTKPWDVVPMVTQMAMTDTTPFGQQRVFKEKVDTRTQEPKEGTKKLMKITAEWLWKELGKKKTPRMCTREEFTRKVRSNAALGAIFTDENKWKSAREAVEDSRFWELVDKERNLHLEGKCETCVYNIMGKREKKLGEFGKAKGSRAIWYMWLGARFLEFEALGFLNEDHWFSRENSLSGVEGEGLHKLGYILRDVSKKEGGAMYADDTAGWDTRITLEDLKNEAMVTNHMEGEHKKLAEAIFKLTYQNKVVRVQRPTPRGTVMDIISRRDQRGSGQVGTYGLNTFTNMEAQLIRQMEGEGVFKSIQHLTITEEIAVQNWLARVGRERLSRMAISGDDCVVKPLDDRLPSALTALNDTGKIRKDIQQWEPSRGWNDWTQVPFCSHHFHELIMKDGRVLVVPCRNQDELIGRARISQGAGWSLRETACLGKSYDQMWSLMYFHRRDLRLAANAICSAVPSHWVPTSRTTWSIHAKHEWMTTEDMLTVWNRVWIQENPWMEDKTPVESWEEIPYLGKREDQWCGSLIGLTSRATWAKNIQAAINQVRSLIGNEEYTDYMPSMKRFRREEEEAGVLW

[7] = target: T1, Nuclear receptor subfamily 0 group B member 1 (Homo sapiens, UniProt P51843); test: Luminescence-based cell-based high throughput dose response assay for inhibitors of the orphan nuclear receptor subfamily 0, group B, member 1 (DAX1; NR0B1). [Related pubchem assays (depositor defined):AID504766, AID504790]; type: functional
T1 sequence (P51843 whole entry): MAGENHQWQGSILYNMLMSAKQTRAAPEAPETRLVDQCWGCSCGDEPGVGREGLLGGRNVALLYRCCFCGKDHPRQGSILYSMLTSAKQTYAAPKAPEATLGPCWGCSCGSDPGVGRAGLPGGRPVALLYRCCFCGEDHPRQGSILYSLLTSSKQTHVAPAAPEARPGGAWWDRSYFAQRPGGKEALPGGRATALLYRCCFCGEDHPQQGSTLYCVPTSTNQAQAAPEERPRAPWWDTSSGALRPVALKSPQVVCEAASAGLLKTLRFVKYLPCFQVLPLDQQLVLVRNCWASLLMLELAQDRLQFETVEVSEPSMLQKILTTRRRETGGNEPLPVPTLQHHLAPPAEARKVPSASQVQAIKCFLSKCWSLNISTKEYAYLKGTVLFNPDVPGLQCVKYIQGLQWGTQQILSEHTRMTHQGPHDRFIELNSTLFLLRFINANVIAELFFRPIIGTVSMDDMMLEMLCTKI

[8] = target: T2, Hepatocyte nuclear factor 4-alpha (Homo sapiens, UniProt P41235); type: functional, cell-based;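 also: biochemical luminescence-based dose-response counterscreen measuring inhibition of HNF4 dimerization, run alongside a screen for blockers of ABHD5–perilipin-5 interaction; split luciferase complementation of HNF4 fusion proteins in cell lysate measuring dimerization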
T2 sequence (P41235 whole entry): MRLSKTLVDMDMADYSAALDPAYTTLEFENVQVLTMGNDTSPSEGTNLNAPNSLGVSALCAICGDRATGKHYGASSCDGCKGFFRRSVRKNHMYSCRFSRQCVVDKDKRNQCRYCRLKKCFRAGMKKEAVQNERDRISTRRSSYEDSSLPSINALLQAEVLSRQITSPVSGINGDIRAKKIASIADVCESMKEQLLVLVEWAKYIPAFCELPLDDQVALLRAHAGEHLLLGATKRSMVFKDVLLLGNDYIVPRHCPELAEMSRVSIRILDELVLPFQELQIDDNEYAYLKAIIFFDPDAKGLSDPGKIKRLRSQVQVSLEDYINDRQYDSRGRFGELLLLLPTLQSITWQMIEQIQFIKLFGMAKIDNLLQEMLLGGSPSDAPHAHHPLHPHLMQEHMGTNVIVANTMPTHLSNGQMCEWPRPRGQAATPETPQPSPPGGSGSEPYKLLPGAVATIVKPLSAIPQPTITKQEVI

[9] = cells; type: functional, cell-based
[10] = target: T3, Trace amine-associated receptor 1 (Homo sapiens, UniProt Q96RJ0); test: Fluorescence-based cell-based high throughput dose response assay to identify agonists of the human trace amine associated receptor 1 (TAAR1).; type: functional
T3 sequence (Q96RJ0 whole entry): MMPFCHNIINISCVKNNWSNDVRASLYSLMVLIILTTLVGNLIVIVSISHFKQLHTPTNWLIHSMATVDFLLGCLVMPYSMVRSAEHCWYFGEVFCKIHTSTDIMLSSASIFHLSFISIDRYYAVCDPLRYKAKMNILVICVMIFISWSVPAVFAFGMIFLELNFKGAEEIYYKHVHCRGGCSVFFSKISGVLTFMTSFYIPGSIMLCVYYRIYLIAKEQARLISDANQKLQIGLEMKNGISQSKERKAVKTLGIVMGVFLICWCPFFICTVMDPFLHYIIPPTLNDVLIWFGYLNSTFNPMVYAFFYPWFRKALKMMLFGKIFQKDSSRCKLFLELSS

[11] = target: T3, Trace amine-associated receptor 1; test: Counterscreen for agonists of the human trace amine associated receptor 1 (hTAAR1): Fluorescence-based cell-based high throughput dose response assay to identify hTAAR1 agonist that also desensitize TAAR1 receptor response.; type: functional
[12] = cells; type: functional, cell-based; remark: listed apart in the source
[13] = viability loss in Vero cells – cytotoxicity control for Vif-APOBEC3G degradation inhibitor project, dose response (AID 1117358); type: functional; details: Vero
[14] = A2780 cell killing – plate reader, dry powder samples, cytotoxicity control, dose response (AID 743046); type: functional, cell-based
[15] = P. falciparum Dd2 growth inhibitors, dose response, SYBR Green, cherry-picked samples (AID 1159567); type: functional, cell-based
[16] = viability of PTEN-deleted HCT116 cells – cell-based, HCT116 PTEN knockout, dose response (AID 1047); type: functional;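 also: HCT116 colon tumor cells with PTEN knocked out; cells exposed to compound for 60 hours before readout; potency for loss of cell viability measured by luminescence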
[17] = viability of HCT116 lacking mutant beta-catenin – cell-based, human colon tumor, dose response (AID 1045); type: functional;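 also: HCT116 colon tumor cells with beta catenin knocked out; cells exposed to compound for 60 hours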
[18] = blockers of HIV-1 envelope-mediated cell-cell fusion – cherry-pick, dose response (AID 652057); type: functional, cell-based
[19] = blockers of HIV-1 ZM109 envelope-driven cell-cell fusion – HeLa effector, CEM target cells, luciferase, cherry-pick, dose response (AID 652058); type: functional, cell-based;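 also: luciferase signal from HIV-1 Env mediated cell-cell fusion of effector and target cells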
[20] = off-target signal loss in HeLa-CEM21 co-culture – HeLa F-luc CTL cells, cherry-picked, counter-screen for HIV-1 Env fusion inhibitor project, dose response (AID 652040); type: functional, cell-based;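 also: potency for signal decrease marking cytotoxic or nonspecific inhibition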
[21] = HIV-1 AD8 envelope cell-cell fusion blockers – cherry-pick, dose response (AID 652062); type: functional, cell-based;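 also: luciferase signal from cell-cell fusion driven by HIV-1 clade B AD8 Env; potency is for inhibitors of fusion seen as a drop in luminescence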
[22] = target: Paired box protein Pax-8 (Homo sapiens, UniProt Q06710); test: PAX8 transcriptional activity inhibition in RMG-I – RMG-I cells, luciferase, cherry-pick, dose response (AID 687027); type: functional, cell-based;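 also: luciferase reporter driven by Pax8 target thyroperoxidase promoter measured by SteadyGlo luminescence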
Paired box protein Pax-8, sequence (Q06710 whole entry): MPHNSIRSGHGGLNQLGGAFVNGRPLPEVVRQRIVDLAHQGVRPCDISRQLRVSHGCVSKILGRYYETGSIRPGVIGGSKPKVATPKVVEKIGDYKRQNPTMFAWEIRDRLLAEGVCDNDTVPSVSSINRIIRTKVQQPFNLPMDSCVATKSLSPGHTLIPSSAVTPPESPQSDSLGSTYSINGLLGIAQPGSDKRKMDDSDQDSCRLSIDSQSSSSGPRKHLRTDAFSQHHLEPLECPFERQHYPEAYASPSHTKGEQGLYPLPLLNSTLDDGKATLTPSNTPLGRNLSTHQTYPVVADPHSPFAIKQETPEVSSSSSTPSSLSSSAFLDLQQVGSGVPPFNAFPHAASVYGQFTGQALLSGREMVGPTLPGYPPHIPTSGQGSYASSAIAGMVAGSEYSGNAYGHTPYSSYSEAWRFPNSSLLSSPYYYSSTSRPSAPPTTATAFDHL

[23] = OVCAR8 cell viability loss – plate reader, dry powder samples, PAX8 project, dose response (AID 743197); type: functional, cell-based; details: OVCAR-8
[24] = target: T4, Rac GTPase-activating protein 1 (Homo sapiens, UniProt Q9H0H5); test: blockers of MgcRacGAP-driven Rac1 GTP hydrolysis – biochemical, ADP Hunter fluorescence, primary and confirmatory, confirmation (AID 624330); type: functional
T4 sequence (Q9H0H5 whole entry): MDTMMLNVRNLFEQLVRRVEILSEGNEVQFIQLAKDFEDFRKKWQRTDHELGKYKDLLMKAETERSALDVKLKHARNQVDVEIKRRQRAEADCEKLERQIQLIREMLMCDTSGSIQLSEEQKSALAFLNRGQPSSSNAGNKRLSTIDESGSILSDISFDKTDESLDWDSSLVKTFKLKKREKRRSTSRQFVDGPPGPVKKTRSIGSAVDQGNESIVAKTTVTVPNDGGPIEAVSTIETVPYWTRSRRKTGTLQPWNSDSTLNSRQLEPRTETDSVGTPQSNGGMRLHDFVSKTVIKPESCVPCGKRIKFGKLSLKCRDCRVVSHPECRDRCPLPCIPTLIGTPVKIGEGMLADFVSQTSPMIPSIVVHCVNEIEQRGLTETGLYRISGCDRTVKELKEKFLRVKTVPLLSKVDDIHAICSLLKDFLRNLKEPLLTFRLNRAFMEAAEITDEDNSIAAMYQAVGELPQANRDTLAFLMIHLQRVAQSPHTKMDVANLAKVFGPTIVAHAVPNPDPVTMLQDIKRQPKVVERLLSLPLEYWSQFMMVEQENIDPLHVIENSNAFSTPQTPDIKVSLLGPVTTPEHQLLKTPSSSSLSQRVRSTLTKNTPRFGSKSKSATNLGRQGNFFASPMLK

[25] = target: T5, Ubiquitin-conjugating enzyme E2 N (Homo sapiens, UniProt P61088); type: functional;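 also: Dose-response confirmation in a TR-FRET assay detecting UBC13-driven polyubiquitin chain formation, inhibition measured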
T5 sequence (P61088 whole entry): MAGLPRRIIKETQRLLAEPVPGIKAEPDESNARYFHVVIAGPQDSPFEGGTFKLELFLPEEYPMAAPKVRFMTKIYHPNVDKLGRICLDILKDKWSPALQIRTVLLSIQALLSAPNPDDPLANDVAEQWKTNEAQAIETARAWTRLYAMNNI

[26] = system: INS1; test: INS-1E survival protection against cytokine death – cell-based, luminescence, retest, dose response (AID 449756); type: functional; details: Rattus norvegicus;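 also: cell death triggered by IL-1 beta plus TNF-alpha plus IFN-gamma mixture; protective hits raise ATP signal compared with cytokine alone wells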
[27] = reduction of Shn3 3'UTR-driven luciferase in osteoblasts – cell-based, Clone20 osteoblasts, firefly luciferase, cherry-picked, dose response (AID 624132); type: functional;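 also: firefly luciferase luminescence from reporter carrying the Shn3 3'UTR in osteoblasts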
[28] = loss of viability in HepG2 cells – cell-based, CellTiter-Glo, cherry-picked, cytotoxicity control for Shn3 inhibitor project, dose response (AID 624134); type: functional
[29] = non-specific 3'UTR reporter inhibition in Clone20-Shn3RL – cell-based, Renilla luciferase, cherry-picked, counter-screen for Shn3 inhibitor project, dose response (AID 624133); type: functional
[30] = luciferase reporter signal suppression in cells – H4 neuroglioma cells, luminescence, dose response (AID 1990); type: functional, cell-based
[31] = Luminescence Cell-Based Dose Response HTS to Identify Inhibitors of 5'UTR Stem-Loop Driven Prion Protein mRNA Translation in H4 Neuroglioblastoma Cells. [Related pubchem assays: 1827 (Project Summary), 1813 (Primary HTS)]; type: functional
[32] = alpha-synuclein stem-loop luciferase translation blockers – H4 neuroglioma cells, luminescence, confirmation (AID 1988); type: functional, cell-based
[33] = system: HeLa; test: ATP-based viability loss in HeLa cells – cell-based, CellTiter-Glo luminescence, cherry-pick samples, cytotoxicity control for MITF activator project, dose response (AID 540259); type: functional; details: Homo sapiens
[34] = Luminescence Cell-Based Dose Retest to Confirm Inhibitors of Cancer Stem Cells. [Related pubchem assays (depositor defined):AID2717, AID2721]; type: functional; details: Homo sapiens
[35] = HIV-1 Vif–A3G interaction blockers – biochemical, TR-FRET, GST-Vif 1-94, biotin-A3G peptide, dose response retest, primary screen (AID 1117319); type: functional;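 also: TR-FRET signal of purified GST-Vif binding a biotinylated A3G peptide; inhibitors lower the FRET signal by blocking Vif and A3G binding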

O=C(O)c1ccccc1C(=O)c1ccc(Sc2ccc(Cl)cc2)c([N+](=O)[O-])c1
EC50 [1]: > 150 µM (not active)
EC50 [2]: > 150 µM (not active)
EC50 [3]: > 150 µM (not active)
EC50 [4]: > 150 µM (not active)
IC50 [5]: > 67.5 µM (inactive)
IC50 [6]: 35.1 µM (active)
IC50 [7]: > 67.5 µM (inactive)

O=c1c(-c2ccco2)nc2ccccc2n1C(CCc1ccccc1)c1nc2ccccc2[nH]1 (configuration not stated)
IC50 [8]: 2.54 µM (active)

COc1cc(CNCCc2ccccc2F)ccc1OCc1ccc(Cl)nc1
IC50 [9]: 28.7 µM (inactive)
EC50 [10]: 2.83 µM (active)
IC50 [11]: 9.47 µM (active)
EC50 [12]: 11.1 µM (inactive)
CC50 [13]: > 40 µM (active)

CC(C)(C)NC(=O)C(c1ccncc1)n1c(=O)c(-c2ccco2)nc2ccccc21 (configuration not stated)
IC50 [8]: 8.03 µM (active)

COc1ncnc2c1ncn2CCCNCC(C)c1ccccc1 (configuration not stated)
IC50 [9]: > 29.9 µM (inactive)
EC50 [10]: 3.84 µM (active)
IC50 [11]: 12.8 µM (inactive)
EC50 [12]: > 29.9 µM (inactive)

O=C(CC(O)CCc1ccccc1)c1ccc(O)cc1 (configuration not stated)
IC50 [5]: > 67.5 µM (inactive)
IC50 [7]: > 67.5 µM (inactive)

CO[C@@H]1CN(C)C(=O)c2cc(NC(=O)c3nc4ccccc4s3)ccc2OC[C@H](C)NC[C@H]1C
AC50 [14]: 0.437 µM (active)
AC50 [15]: 10 µM (active)

Cn1nc(-c2ccc(Cl)cc2)c2cc(C(=O)NCCN3CCOCC3)sc21
EC50 [16]: 22.4 µM (active)
EC50 [17]: 17 µM (active)
IC50 [5]: > 67.5 µM (inactive)
IC50 [7]: > 67.5 µM (inactive)

COc1cc(OCC(=O)NC(C)C)cc2c1C(=O)O[C@@H](C)CCCC(=O)CCCCC2
AC50 [18]: 6.38 µM (active)
AC50 [19]: 6.68 µM (active)
AC50 [20]: 10.5 µM (active)
AC50 [21]: 26.4 µM (active)

O=C(N[C@H](C(=O)N1CCC[C@H]1C(=O)NCCc1ccccc1Cl)C1CCCCC1)C1CC1
IC50 [9]: > 29.9 µM (inactive)
EC50 [10]: 12.1 µM (inactive)
IC50 [11]: 8.99 µM (active)
EC50 [12]: > 29.9 µM (inactive)

C[C@@H]1CN([C@H](C)CO)C(=O)c2cc(NC(=O)Nc3ccc(F)cc3)ccc2O[C@@H](C)CCCCO[C@H]1CN(C)S(=O)(=O)c1ccc(Cl)cc1
AC50 [22]: 6.11 µM (active)
AC50 [14]: 5.81 µM (active)
AC50 [23]: > 70 µM (inactive)

O=C(/C(=C/c1ccccc1)n1cncn1)c1ccc(Cl)cc1Cl
IC50 [8]: 3.22 µM (active)
IC50 [24]: 150 µM (active)

CCOC(=O)CSc1nc2cc3c(cc2cc1C#N)OCCO3
IC50 [5]: > 67.5 µM (inactive)
IC50 [7]: > 67.5 µM (inactive)

COc1ccc(Nc2nc(N3CCCC3)c3ccccc3n2)cc1
IC50 [25]: > 20 µM (inactive)
AC50 [26]: 3.07 µM (active)
AC50 [27]: 3.67 µM (active)
AC50 [28]: 8.46 µM (active)
AC50 [29]: 5.37 µM (active)
IC50 [9]: 19.7 µM (inactive)
EC50 [10]: > 3.32 µM (active)
IC50 [11]: 7.19 µM (active)
EC50 [12]: > 29.9 µM (inactive)

O=C(NCc1ccco1)c1ccc(Cn2c(=O)c3ccccc3n(Cc3cccc(F)c3)c2=O)cc1
EC50 [30]: 15.1 µM (active)
EC50 [31]: > 120 µM (not active)
EC50 [32]: 41.4 µM (active)
AC50 [18]: 2.17 µM (active)
AC50 [19]: 5.5 µM (active)
AC50 [20]: 3.52 µM (active)

CN1CCSc2ccc(C(=O)Nc3cc(F)ccc3F)cc21
IC50 [5]: > 67.5 µM (inactive)
IC50 [7]: > 67.5 µM (inactive)
AC50 [33]: 44.2 µM (active)

Cn1nc(-c2ccc(Cl)cc2)c2cc(C(=O)NCCCN3CCOCC3)sc21
AC50 [34]: 2.03 µM (active)
IC50 [35]: > 100 µM (active)
CC50 [13]: > 40 µM (active)
